# Assays:
# [1] = biological target: T1, GDH (Bos taurus, UniProt P00366); experiment: steady state kinetic analysis of reductive amination, NADH or 2-oxoglutarate varied (Lineweaver-Burke plots); type: biochemical, bovine; set-up: Y-intercept (Lineweaver-Burke): unit not given beside the values
# T1 construct: purchased Sigma Aldrich Chemical Company (St. Louis, Mo.)
# Experimental: (§1) First, aliquots of GDH were extensively dialyzed against 0.1M sodium phosphate buffer, pH 7.0, which contained 1 mM ethylenediaminetetraacetic acid (EDTA). The enzyme concentrations were adjusted to 1 mg/ml and the amount of enzyme added to the reaction mixture, for kinetic analysis, was adjusted to yield optimal steady state velocity measurements. All solutions were made immediately prior to use. Enzyme assays were performed by monitoring reduced coenzyme absorbance at 340 nm using a Shimadzu UV-1601 spectrophotometer. The reductive amination reactions were performed in 3 mL volumes at pH 7.0 in the presence of 0.1 mM nicotinamide adenine dinucleotide (NADH), 50 mM NH4Cl, and 5 mM 2-oxoglutarate. The rate of NADH oxidation was calculated using an extinction coefficient of 6.22 mM^−1 cm^−1.
# In this Example, EGCG was added to a reaction (at a final concentration of 0.0, 0.3, or 0.6 μM), along with various concentrations of NADH or 2-oxoglutarate, to further ascertain how EGCG inhibits the reductive amination reaction catalyzed by GDH. Such kinetic analysis was carried out as described above in Example 1.
# [2] = test system: HI/HA mutant forms of GDH (R265K, R269C, E296A, S448P, H454Y); experiment: kinetic analysis of HI/HA mutant forms of GDH; type: biochemical, human; conditions: FIG. 4
# Experimental: as §1
# To this end, EGCG was tested against five different HI/HA mutant forms of GDH, namely, R265K, R269C, E296A, S448P, and H454Y. In addition, EGCG was tested against human wild type GDH (“WT”), GDH from Tetrahymena thermophilia (“tGDH”) that, like the HI/HA mutant GDH enzymes, is not regulated by GTP, and a human GDH that was missing a certain 48 residue ‘antenna-like’ feature protruding from the top of each of its six subunits that is necessary for ADP, GTP, and Palmitoyl CoA regulation. […]
# [3] = test system: rat islets; experiment: BCH-stimulated insulin secretion in perifused islets (120 minute run-down, BCH ramp); type: cell-based, Wistar rat
# Experimental: In this Example, adult male Wistar rat islets were isolated by collagenase digestion and initially cultured in glucose-free RPMI […] medium (Sigma Aldrich Chemical Company, St. Louis, Mo.). The culture medium was supplemented with 10% fetal bovine serum, 2 mM glutamine, 100 units/mL penicillin, and 50 μg/mL streptomycin.
# The islets were then perifused in the absence of glucose and in the presence of 2 mM glutamine (and the different concentrations of EGCG or EGC shown in FIG. 5) for run-down periods of 120 minutes prior to stimulation with a BCH ramp (0 to 10 mM, 0.2 mM/minute). Specifically, 100 cultured rat islets were loaded onto nylon filters in a small chamber and perifused in a Krebs-Ringer bicarbonate buffer (115 mmol/liter NaCl, 24 mmol/liter NaHCO3, 5 mmol/liter KCl, 1 mmol/liter MgCl2, 2.5 mmol/liter CaCl2, in 10 mM HEPES, pH 7.4) with 0.25% bovine serum albumin at a flow rate of 2 mL/minute. Perifusate solutions were gassed with 95% O2/5% CO2 and maintained at 37° C. Finally, the islets were exposed to 30 mM KCl. Samples were collected every minute to measure insulin levels by radioimmunoassay.
# [4] = test system: islets; experiment: [U-14C]-glutamine oxidation in islets; type: cell-based, rat
# Experimental: In a first experiment, a batch of 100 islets were incubated with glucose-free Krebs-Ringer bicarbonate buffer, as described herein, containing 20 μM EGCG or 20 μM EGC and 2 mM glutamine for 60 minutes. The islets were then incubated in the presence of varying concentrations of BCH (shown in FIG. 7A) for 60 minutes, and for an additional 60 minutes in the presence of 2 mCi [U-^14C]-glutamine (NEN-Life Science Products, UK). Next, [U-^14C]-glutamine oxidation in the incubated islets was measured. A trap filter was placed in each tightly sealed glass tube of the perifusion apparatus to collect the ^14CO2 produced by the islets, and the amount of radioactivity was determined by liquid scintillation counting. The results are summarized in FIG. 7A, and are presented as means±S.E. from 4 separate experiments. […] The islets were then incubated in the presence of 10 mM BCH (or no BCH—to measure “baseline” glutamine oxidation levels) for 60 minutes. The islets were then incubated for an additional 60 minutes in the presence of 2 mCi [U-^14C]-glutamine (NEN-Life Science Products, UK). Next, [U-^14C]-glutamine oxidation in the incubated islets was measured, as described above.
# [5] = test system: rat islets; experiment: glucose stimulated insulin secretion in 120 minute run-down islets; type: cell-based
# Experimental: Under brief “run-down” conditions used for the above GSIS analysis, where glucose was removed from the cells for only […], the levels of high-energy metabolites (i.e., GTP and ATP) have not been depleted and these effectively shut down GDH activity. This, in turn, eliminated any effect GDH might have on insulin secretion. Therefore, the effects of EGCG were also tested on […] that had been “run-down” for a longer period of time (120 minutes) prior to glucose stimulation (FIG. 11). Specifically, isolated rat islets were cultured with 10 mM glucose for 3 days and then perifused in the absence of glucose and in the presence of 0 or 20 μM EGCG (or 20 μM EGC) for “run-down” periods of 120 minutes prior to stimulation with a glucose ramp (0 to 25 mM, 0.5 mM/minute). Finally, islets were exposed to 30 mM KCl. The insert highlighted the insulin secretion from time=120 minutes to 140 minutes.
# [6] = cited from earlier work
# [7] = 2-oxoglutarate varied, [EGCG] 0.3 μM
# [8] = 2-oxoglutarate varied, [EGCG] 0.6 μM
# [9] = ethanol, DMSO, dimethyl formamide
# T1 sequence (P00366 58-558): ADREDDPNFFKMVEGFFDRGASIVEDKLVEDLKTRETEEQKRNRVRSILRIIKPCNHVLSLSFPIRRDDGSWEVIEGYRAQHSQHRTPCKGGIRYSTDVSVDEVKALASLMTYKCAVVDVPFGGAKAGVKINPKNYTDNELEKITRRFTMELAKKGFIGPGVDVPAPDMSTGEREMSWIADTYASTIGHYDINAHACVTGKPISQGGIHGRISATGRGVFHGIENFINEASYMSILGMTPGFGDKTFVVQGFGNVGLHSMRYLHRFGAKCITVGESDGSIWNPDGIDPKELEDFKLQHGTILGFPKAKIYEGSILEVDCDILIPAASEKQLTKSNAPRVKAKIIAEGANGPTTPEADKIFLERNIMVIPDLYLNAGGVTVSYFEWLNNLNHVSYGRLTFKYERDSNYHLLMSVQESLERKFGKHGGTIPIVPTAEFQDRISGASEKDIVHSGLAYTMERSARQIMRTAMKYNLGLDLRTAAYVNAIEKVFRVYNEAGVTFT
structure (smiles),measurement,setting,value
"O=C(O[C@@H]1Cc2c(O)cc(O)cc2O[C@@H]1c1cc(O)c(O)c(O)c1)c1cc(O)c(O)c(O)c1 [EGCG, (2R,3R)-2-(3,4,5-Trihydroxyphenyl)-3,4-dihydro-1 (2H)-benzopyran-3,5,7-triol 3-(3,4,5-trihydroxybenzoate)]",Slope (Lineweaver-Burke),[1]; [7],0.039 ± 0.002
same,Y-intercept (Lineweaver-Burke),[1]; [7],0.24 ± 0.1
same,Slope (Lineweaver-Burke),[1]; [8],0.15 ± 0.02
same,Y-intercept (Lineweaver-Burke),[1]; [8],0.097 ± 0.5
same,Slope (Lineweaver-Burke),"[1]; NADH varied, [EGCG] 0.3 μM",0.0026 ± 0.0002
same,Y-intercept (Lineweaver-Burke),"[1]; NADH varied, [EGCG] 0.3 μM",0.15 ± 0.01
same,Slope (Lineweaver-Burke),"[1]; NADH varied, [EGCG] 0.6 μM",0.0040 ± 0.0003
same,Y-intercept (Lineweaver-Burke),"[1]; NADH varied, [EGCG] 0.6 μM",0.2000 ± 0.02
same,mode of inhibition,[1]; versus NADH and 2-oxoglutarate,non-competitive inhibition
same,inhibition of the activity of HI/HA GDH enzymes,[2],substantially the same efficacy as with wild type human GDH
same,intrinsic ability of the cells to secrete insulin (depolarization by KCl),[3]; 30 mM KCl,did not affect
same,BCH stimulation of insulin secretion blocked,[3]; FIG. 5,blocked
same,block of BCH stimulation of glutaminolysis (glutamine oxidation),"[4]; 20 μM, 2 mM glutamine, FIG. 7A",completely blocked
same,effect on basal levels of glutamine oxidation,"[4]; 3 mM glutamine, no BCH, FIG. 7D",does not have an effect
same,effect on 10 mM BCH-stimulated glutamine oxidation,"[4]; 3 mM glutamine, FIG. 7B, 7C",inhibits glutamine oxidation in a dose-dependent manner
same,concentration of maximal effects on glutamine oxidation,"[4]; 10 mM BCH, 3 mM glutamine, FIG. 7B",approximately 20 μM
same,potentiation of GSIS,"[5]; 20 μM, 120 minute run-down, FIG. 11",potentiates
same,effect on KCl-stimulated release of insulin,[5]; 30 mM KCl,neither EGCG or EGC affected
same,solubility in organic solvents,[6]; [9],at least 20 mg/mL
same,soluble in organic solvents,[6]; [9],soluble
same,solubility in phosphate buffered saline (PBS),[6]; pH 7.2,at least 25 mg/mL

# Source: patent US20060263453A1, “Methods and compositions for modulating glutamate dehydrogenase” (priority 2004, published 2006)
